Data: US8222247B2, “Modulators of glucocorticoid receptor, AP-1, and/or NF-kappabeta activity and use thereof” (Bristol-Myers Squibb Company, priority 2006, dated 2012)

Assays:
[1] = target: T1, human full-length glucocorticoid receptor (Homo sapiens, UniProt P04150); assay: Glucocorticoid Receptor Binding Assay (II), fluorescence polarization competitor kit; conditions: 1 h, % Relative Binding Affinity to dexamethasone, read-out: GR (% RBA* @ 10 μM) (GR Binding Assay (II)b)
T1 construct: recombinantly expressed human full-length glucocorticoid receptor; purchased PanVera Co., Madison, Wis; P2816
T1 sequence (P04150 1-777): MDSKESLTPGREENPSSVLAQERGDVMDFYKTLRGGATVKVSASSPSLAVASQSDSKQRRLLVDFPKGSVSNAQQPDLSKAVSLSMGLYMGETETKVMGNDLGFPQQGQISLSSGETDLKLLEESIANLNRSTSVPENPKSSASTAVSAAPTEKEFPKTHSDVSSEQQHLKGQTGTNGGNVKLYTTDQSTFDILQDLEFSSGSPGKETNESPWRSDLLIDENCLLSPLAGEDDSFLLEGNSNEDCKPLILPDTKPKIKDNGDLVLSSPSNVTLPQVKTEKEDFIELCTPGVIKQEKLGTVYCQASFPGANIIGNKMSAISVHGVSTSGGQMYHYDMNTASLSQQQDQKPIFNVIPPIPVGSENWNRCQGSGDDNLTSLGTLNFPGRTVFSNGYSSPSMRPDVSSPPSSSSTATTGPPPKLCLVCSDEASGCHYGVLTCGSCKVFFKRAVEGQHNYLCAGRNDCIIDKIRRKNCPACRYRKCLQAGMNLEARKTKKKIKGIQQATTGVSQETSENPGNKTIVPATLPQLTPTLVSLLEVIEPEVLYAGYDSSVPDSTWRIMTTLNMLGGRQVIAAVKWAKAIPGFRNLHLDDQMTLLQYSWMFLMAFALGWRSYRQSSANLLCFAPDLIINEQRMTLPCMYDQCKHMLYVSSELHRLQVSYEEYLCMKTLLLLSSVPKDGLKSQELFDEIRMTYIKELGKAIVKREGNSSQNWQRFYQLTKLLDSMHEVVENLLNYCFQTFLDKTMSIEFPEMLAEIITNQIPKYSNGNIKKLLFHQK
Protocol: Glucocorticoid Receptor Binding Assay (II)^b
In order to measure the binding of compounds on the glucocorticoid receptor a commercially available kit was used (Glucocorticoid receptor competitor assay kit, PanVera Co., Madison, Wis., P2816). Briefly, a cell lysate containing recombinantly expressed human full-length glucocorticoid receptor was mixed with a fluorescently labeled glucocorticoid (1 nM Fluormone GS1) in the presence or absence of test compound. After one hour at room temperature, the fluorescence polarization (FP) of the samples were measured. The FP of a mixture of receptor, fluorescent probe (i.e. Fluormone GS1) and 1 mM dexamethasone represented background fluorescence or 100% inhibition, whereas, the FP of the mixture without dexamethasone was taken to be 100% binding. The percentage inhibition of test molecules were then compared to the sample with 1 mM dexamethasone and expressed as % relative binding activity with dexamethasone being 100% and no inhibition is 0%. Test molecules were analyzed in the concentration range from 2.4 nM to 40 microMolar.

[2] = target: T2, human glucocorticoid receptor (Homo sapiens, UniProt P04150); assay: Glucocorticoid Receptor Binding Assay (I), fluorescence polarization competitor kit; conditions: purified human recombinant full-length GR, Fluormone GS Red
T2 construct: purified human recombinant full-length glucocorticoid receptor (2 nM); purchased Invitrogen Part #2893
T2 sequence (P04150 1-777): T1 sequence (P04150 1-777)
How it was run: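 Fluorescence polarization competition of purified recombinant full-length human GR (2 nM) with 1 nM Fluormone GS Red, incubated 2 h at room temperature in the dark. Normalized to vehicle (0%) and 5 μM dexamethasone (100%) as % relative binding activity. Compounds tested 8.5E-05 to 5 μM.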

Row | SMILES | percent relative binding activity vs dexamethasone at 10 µM [1] [%] | Ki [2] [nM]
1 | CC(C)(C(=O)Nc1nccs1)C(c1ccccc1)c1ccc(N2CCOCC2)nc1 (single isomer, unassigned) [Example 20, 2,2-Dimethyl-3-(6-(4-morpholinyl)-3-pyridinyl)-3-phenyl-N-1,3-thiazol-2-ylpropanamide] | 152 | –
2 | CC(C)(C(=O)Nc1nncs1)C(c1ccccc1)c1ccc(N2CCCCC2)nc1 (centres unmarked) [Example 15, 2,2-dimethyl-3-phenyl-3-(6-(1-piperidinyl)-3-pyridinyl)-N-1,3,4-thiadiazol-2-ylpropanamide] | 14.7 | –
3 | CC(C)(C(=O)Nc1nncs1)C(c1cccc(F)c1)c1ccc(Br)s1 (centres unmarked) [Example 1, 3-(5-Bromo-2-thienyl)-3-(3-fluorophenyl)-2,2-dimethyl-N-1,3,4-thiadiazol-2-ylpropanamide] | 6.4 | –
4 | CC(C)(C(=O)Nc1nncs1)C(c1ccccc1)c1cnc(N2CCOCC2)c(Cl)c1 (centres unmarked) [Example 28, 3-(5-chloro-6-(4-morpholinyl)-3-pyridinyl)-2,2-dimethyl-3-phenyl-N-1,3,4-thiadiazol-2-ylpropanamide] | 187 | –
5 | CC(C)(C(=O)Nc1nccs1)C(c1ccccc1)c1ccncc1 (centres unmarked) [Example 7, 2,2-dimethyl-3-phenyl-3-(4-pyridinyl)-N-1,3-thiazol-2-ylpropanamide] | 161 | –
6 | CC(C)(C(=O)Nc1nncs1)C(c1cccc(F)c1)c1ccc(N2CCOCC2)s1 (centres unmarked) [Example 9, 3-(3-fluorophenyl)-2,2-dimethyl-3-(5-(4-morpholinyl)-2-thienyl)-N-1,3,4-thiadiazol-2-ylpropanamide] | 49.7 | 24.6
7 | CC(C)(C(=O)Nc1nccs1)C(c1ccccc1)c1ccc(-c2ccoc2)nc1 (centres unmarked) [Example 25, 3-(6-(3-furyl)-3-pyridinyl)-2,2-dimethyl-3-phenyl-N-1,3-thiazol-2-ylpropanamide] | 73.4 | –
8 | COc1ccc(-c2ccc(C(c3ccccc3)C(C)(C)C(=O)Nc3nncs3)cn2)cc1 (centres unmarked) [Example 24, 3-(6-(4-Methoxyphenyl)-3-pyridinyl)-2,2-dimethyl-3-phenyl-N-1,3,4-thiadiazol-2-ylpropanamide] | 16.3 | –
9 | CC(C)(C(=O)Nc1nncs1)C(c1ccc(N2CCOCC2)cc1)c1cccs1 (centres unmarked) [Example 11, 2,2-dimethyl-3-(4-(4-morpholinyl)phenyl)-N-1,3,4-thiadiazol-2-yl-3-(2-thienyl)propanamide] | 7.4 | –
10 | CC(C)(C(=O)Nc1nncs1)C(c1ccccc1)c1ccc(N2CCC(O)CC2)nc1 (centres unmarked) [Example 17, 3-(6-(4-hydroxy-1-piperidinyl)-3-pyridinyl)-2,2-dimethyl-3-phenyl-N-1,3,4-thiadiazol-2-ylpropanamide] | 112 | –
11 | Cc1ccc(CNc2ccc(C(c3ccccc3)C(C)(C)C(=O)Nc3nccs3)cn2)cc1 (centres unmarked) [Example 18, 2,2-dimethyl-3-(6-((4-methylbenzyl)amino)-3-pyridinyl)-3-phenyl-N-1,3-thiazol-2-ylpropanamide] | 37.2 | –
12 | CC(C)Oc1ccc(-c2ccc(C(c3cccc(F)c3)C(C)(C)C(=O)Nc3nncs3)s2)cc1F (centres unmarked) [Example 37, 3-(5-(3-fluoro-4-isopropoxyphenyl)-2-thienyl)-3-(3-fluorophenyl)-2,2-dimethyl-N-1,3,4-thiadiazol-2-ylpropanamide] | – | 53.5
13 | C[C@H](C(=O)Nc1nncs1)[C@@H](c1cccc(F)c1)c1ccc(Br)s1 [Example 94, (2S,3S)-3-(5-bromo-2-thienyl)-3-(3-fluorophenyl)-2-methyl-N-1,3,4-thiadiazol-2-ylpropanamide] | – | 4.11
14 | CC(C)(C(=O)Nc1nncs1)C(c1ccccc1)c1ccncc1 (centres unmarked) [Example 6, 2,2-dimethyl-3-phenyl-3-(4-pyridinyl)-N-1,3,4-thiadiazol-2-ylpropanamide] | 502 | –

Next, values leading:

Row | percent relative binding activity vs dexamethasone at 10 µM [1] [%] | Ki [2] [nM] | SMILES
15 | 90.4 | – | CC(C)(C(=O)Nc1nncs1)C(c1ccccc1)c1ccc(N2CCCC2)nc1 (centres unmarked) [Example 16, 2,2-dimethyl-3-phenyl-3-(6-(1-pyrrolidinyl)-3-pyridinyl)-N-1,3,4-thiadiazol-2-ylpropanamide]
16 | 52.8 | – | COc1ncc(C(c2ccccc2)C(C)(C)C(=O)Nc2nncs2)cc1Cl (centres unmarked) [Example 27, 3-(5-chloro-6-methoxy-3-pyridinyl)-2,2-dimethyl-3-phenyl-N-1,3,4-thiadiazol-2-ylpropanamide]
17 | 477 | – | CC(C)(C(=O)Nc1nncs1)C(c1ccccc1)c1ccc(N2CCOCC2)nc1 (single isomer, unassigned) [Example 22, 2,2-Dimethyl-3-(6-(4-morpholinyl)-3-pyridinyl)-3-phenyl-N-1,3,4-thiadiazol-2-ylpropanamide]
18 | 6.1 | – | CC(C)(C(=O)Nc1nccs1)C(c1ccc(N2CCOCC2)cc1)c1cccs1 (centres unmarked) [Example 12, 2,2-dimethyl-3-(4-(4-morpholinyl)phenyl)-N-1,3-thiazol-2-yl-3-(2-thienyl)propanamide]
19 | – | 4.19 | CC(C)(C(=O)Nc1nncs1)[C@@H](c1cccc(F)c1)c1ccc(-c2ccc(C(=O)NC3CC3)cc2)s1 [Example 77, N-cyclopropyl-4-(5-((1R)-1-(3-fluorophenyl)-2,2-dimethyl-3-oxo-3-(1,3,4-thiadiazol-2-ylamino)propyl)-2-thienyl)benzamide]
20 | – | 87.6 | CCN(C)C(=O)c1ccc(-c2ccc([C@@H](c3cccc(F)c3)C(C)(C)C(=O)Nc3nncs3)s2)cc1 [Example 62, N-ethyl-4-(5-((1S)-1-(3-fluorophenyl)-2,2-dimethyl-3-oxo-3-(1,3,4-thiadiazol-2-ylamino)propyl)-2-thienyl)-N-methylbenzamide]
21 | 10.1 | – | CC(C)(C(=O)Nc1nccs1)C(c1cccc(F)c1)c1ccc(Br)s1 (centres unmarked) [Example 2, 3-(5-bromo-2-thienyl)-3-(3-fluorophenyl)-2,2-dimethyl-N-1,3-thiazol-2-ylpropanamide]
22 | – | 0.76 | C[C@H](C(=O)Nc1nncs1)[C@H](c1cccc(F)c1)c1ccc(Br)s1 [Example 95, (2S,3R)-3-(5-bromo-2-thienyl)-3-(3-fluorophenyl)-2-methyl-N-1,3,4-thiadiazol-2-ylpropanamide]
